The source made the active and inactive calls. The rule behind the calls is not given here.

The record followed here is ChEMBL document CHEMBL4665849, “Synthesis and biological evaluation of imidazoline derivatives as potential CNS and CVS agents” (Bioorg Med Chem Lett, 2020).

Series [1] concerns Mus musculus. As to the kind of experiment: Hypotensive activity in mouse assessed as decrease in immediate blood pressure at 2.5 mg/kg. The format is functional.
The subject of series [2] is Mus musculus. As to the kind of experiment: Hypotensive activity in mouse assessed as decrease in delayed blood pressure at 2.5 mg/kg. Format: functional.
The subject of series [3] is Mus musculus. Nature of the series: Hypotensive activity in mouse assessed as decrease in heart rate at 2.5 mg/kg. Format: functional.
The test system of series [4] is Mus musculus. Nature of the series: Modulation of cardiovascular activity in mouse assessed as inhibition of carotid occlusion-induced pressure response at 2.5 mg/kg. Format: functional, organism-based.
Series [5] is described as follows: Toxicity in mouse. The format is organism-based. The following applies: in vivo, read-out: ALD50.
Series [6] relates to Mus musculus. Nature of the series: Analgesic activity in mouse assessed as maximum change in tail flick latency time at 10 mg/kg (reference value: 0.7 secs). The format is functional. (In general: In hot-plate and tail-flick tests a longer latency is read as antinociception.)
Series [7] relates to Mus musculus. Nature of the series: Antiaggressive activity in mouse assessed as reduction in foot shock induced fighting behavior by measuring fighting count at 10 mg/kg, ip (reference value: 6.6 to 24.3 counts). The format is functional.
Series [8] relates to Mus musculus. Nature of the series: Antidepressant activity in mouse assessed as total mean swimming time time at 5 mg/kg, ip (reference value: 2.08 to 3.12 min). Format: functional.
Series [9] has as its system Mus musculus. As to the kind of experiment: Modulation of cardiovascular activity in mouse assessed as potentiation of norepinephrine induced pressure response at 2.5 mg/kg. The format is functional, organism-based.
Series [10] relates to Mus musculus. Nature of the series: Analgesic activity in mouse assessed as time duration at which maximum change in tail flick latency occurs at 10 mg/kg (reference value: 60 mins). Format: functional.
Series [11] is filed under the species Mus musculus. The following applies: dose 10.0 mg/kg.
Description: Modulation of cardiovascular activity in mouse assessed as inhibition of norepinephrine induced pressure response at 10 mg/kg
The species named for series [12] is Mus musculus. The following applies: dose 10.0 mg/kg. The source holds these as a separate data set.
Description: Modulation of cardiovascular activity in mouse assessed as inhibition of carotid occlusion-induced pressure response at 10 mg/kg
Series [13] has as its system Mus musculus. As to the kind of experiment: Modulation of cardiovascular activity in mouse assessed as inhibition of norepinephrine induced pressure response at 2.5 mg/kg. The format is functional, organism-based.
For series [14], the system named is Mus musculus. As to the kind of experiment: Antidepressant activity in mouse assessed as total mean swimming time at 15 mg/kg (reference value: 2.98 min). Format: functional.

`O=C1/C(=C/c2ccoc2)N=C(CCN2CCOCC2)N1c1ccc(O)cc1`: the Activity in the series on Mus musculus [1] amounted to 35 mmHg; in the series on Mus musculus [2], 20 mmHg; in the series with Mus musculus [3], 18 bpm; in the series on Mus musculus [7] it was 6.6 Counts. For the same compound, the inhibition entry in the series on Mus musculus [4] was “Active”. For the same compound, in series [5], the LD50 is greater than 1000 mg/kg. Also, the Time in the series with Mus musculus [6] is given as 5.2 s; with Mus musculus [8] it was 1.3 min; with Mus musculus [10] it was 30 min. Besides, the result in the series with Mus musculus [9] was Active.

`CC1=N/C(=C\c2ccc(N(C)C)cc2)C(=O)N1c1ccc(OCC(O)CNc2ccc(Cl)cc2)cc1` (configuration not stated): the Activity in the series on Mus musculus [1] was 15 mmHg; in the series on Mus musculus [2], 30 mmHg; in the series with Mus musculus [3], 21 bpm; in the series with Mus musculus [7], 4.8 Counts. The inhibition entry with Mus musculus [4] was “Active”. In addition, the LD50 in [5] was greater than 500 mg/kg. Besides, the results for the Time with Mus musculus [6], in the series on Mus musculus [8] and in the series with Mus musculus [10] were 0.9 s, 0.84 min and 30 min, respectively. The result in the series on Mus musculus [9] was Active.

Consider `Clc1cccc(Cl)c1NC1=NCCN1`, for which the inhibition result in the series listed under Mus musculus [11] and in the series filed under Mus musculus [12] was “Active” throughout.

With `CC1=N/C(=C\c2ccccc2)C(=O)N1c1ccc(OCC2CO2)cc1` (configuration not stated), the Activity with Mus musculus [1] was 25 mmHg; in the series with Mus musculus [2], 45 mmHg; in the series on Mus musculus [3], 21 bpm; in the series on Mus musculus [7], 6.3 Counts. For the same compound, the inhibition entry with Mus musculus [4] was “Active”. In series [5], the LD50 is greater than 500 mg/kg. Also, the Time is 8.5 s in the series on Mus musculus [6], 1.68 min in the series with Mus musculus [8] and 60 min in the series with Mus musculus [10]. The outcome in the series with Mus musculus [9] was Active.

In the case of `CC1=N/C(=C\c2ccccc2)C(=O)N1c1ccc(OCC(O)CNc2ccc(Cl)cc2)cc1` (configuration not stated), the Activity in the series on Mus musculus [1] worked out at 50 mmHg; in the series on Mus musculus [2] it was 17 mmHg; in the series with Mus musculus [3] it was 6 bpm; in the series with Mus musculus [7], 11.3 Counts. Moreover, the inhibition result in the series with Mus musculus [4] is “Active”. In addition, the LD50 in [5] is greater than 200 mg/kg. In addition, the Time with Mus musculus [6] is given as 4.5 s; with Mus musculus [8] it was 1.6 min; in the series with Mus musculus [10] it was 60 min. The result in the series with Mus musculus [9] was Active.

Consider `CC1=N/C(=C\c2ccoc2)C(=O)O1`, for which the result in the series with Mus musculus [1], in the series with Mus musculus [2], in the series with Mus musculus [3] and with Mus musculus [9] was inactive. For the same compound, the inhibition result with Mus musculus [13] and with Mus musculus [4] was “inactive” in each case. Further, the LD50 in series [5] is greater than 500 mg/kg. For the same compound, the Time in the series on Mus musculus [6] turned out to be 8.8 s; with Mus musculus [8] it was 2.64 min; in the series on Mus musculus [10] it was 15 min. In the series on Mus musculus [7], the Activity is listed as 6 Counts.

For the compound `CN(C)CCCN1c2ccccc2CCc2ccccc21` [IMIPRAMINE], the Time with Mus musculus [14] is 2.33 min.

Turning to `CC1=N/C(=C\c2ccc(N(C)C)cc2)C(=O)N1c1ccc(O)cc1`, the Activity with Mus musculus [1] is on record as 25 mmHg; in the series on Mus musculus [2], 50 mmHg; with Mus musculus [3] it was 27 bpm; in the series with Mus musculus [7], 1.6 Counts. Moreover, in the series with Mus musculus [4], the inhibition result was “Active”. Besides, the LD50 in series [5] is greater than 500 mg/kg. For the same compound, the Time is recorded as 0.1 s in the series on Mus musculus [6], 0.42 min in the series on Mus musculus [8] and 30 min in the series with Mus musculus [10]. Moreover, the outcome with Mus musculus [9] was Active.

As to `CC1=N/C(=C\c2ccc(N(C)C)cc2)C(=O)O1`, the result in the series with Mus musculus [1] and in the series on Mus musculus [3] was inactive. The figures for the Activity in the series on Mus musculus [2] and in the series with Mus musculus [7] were 15 mmHg and 7.3 Counts, respectively. Also, in the series on Mus musculus [4], the inhibition entry was “Active”. In addition, the LD50 in [5] is greater than 500 mg/kg. The figures for the Time in the series on Mus musculus [6], in the series on Mus musculus [8] and in the series on Mus musculus [10] were 1.8 s, 1.5 min and 60 min, respectively. The outcome with Mus musculus [9] was Active.

Turning to `CC1=N/C(=C\c2ccoc2)C(=O)N1c1ccc(OCC2CO2)cc1` (configuration not stated), the Activity in the series with Mus musculus [1] stood at 30 mmHg; in the series with Mus musculus [2], 20 mmHg; in the series with Mus musculus [3], 6 bpm; in the series with Mus musculus [7] it was 5 Counts. For the same compound, in the series with Mus musculus [4], the inhibition entry was “Active”. Also, the LD50 in series [5] was greater than 1000 mg/kg. The values for the Time with Mus musculus [6], in the series with Mus musculus [8] and with Mus musculus [10] were 6.4 s, 1.14 min and 60 min, respectively. Besides, the result in the series with Mus musculus [9] was Active.

In the case of `CC1=N/C(=C\c2ccoc2)C(=O)N1c1ccc(OCC(O)CNc2ccc(Cl)cc2)cc1` (configuration not stated), the Activity in the series with Mus musculus [1] is reported as 25 mmHg; with Mus musculus [2], 20 mmHg; with Mus musculus [3] it was 27 bpm; in the series on Mus musculus [7] it was 10.6 Counts. Besides, the inhibition result in the series with Mus musculus [13] and with Mus musculus [4] was “inactive” each time. Moreover, the LD50 in [5] was greater than 500 mg/kg. In addition, the Time with Mus musculus [6] turned out to be 6.9 s; with Mus musculus [8], 2.83 min; in the series on Mus musculus [10] it was 30 min. In the series with Mus musculus [9], the result was inactive.

Consider `CC1=N/C(=C\c2ccccc2)C(=O)O1`, for which the Activity worked out at 25 mmHg in the series with Mus musculus [1], 40 mmHg in the series on Mus musculus [2], 36 bpm in the series with Mus musculus [3] and 6 Counts in the series on Mus musculus [7]. The inhibition result with Mus musculus [4] was “Active”. Further, the LD50 in series [5] was greater than 500 mg/kg. Moreover, the Time with Mus musculus [6] worked out at 1.3 s; in the series on Mus musculus [8], 1.72 min; in the series with Mus musculus [10], 60 min. The result with Mus musculus [9] was Active.

Turning to `CC1=N/C(=C\c2ccoc2)C(=O)N1c1ccc(O)cc1`, the Activity in the series with Mus musculus [1] is reported as 20 mmHg; with Mus musculus [2], 20 mmHg; with Mus musculus [3], 18 bpm; in the series with Mus musculus [7], 4.6 Counts. Further, the inhibition result in the series on Mus musculus [13] and in the series on Mus musculus [4] was “inactive” throughout. Besides, the LD50 in series [5] was greater than 500 mg/kg. In addition, the Time is listed as 1.3 s in the series on Mus musculus [6], 2.52 min in the series with Mus musculus [8] and 60 min in the series with Mus musculus [10]. Also, the result in the series with Mus musculus [9] was inactive.

As to `O=C1/C(=C/c2ccccc2)N=C(CCN2CCOCC2)N1c1ccc(O)cc1`, the Activity in the series on Mus musculus [1] was 35 mmHg; in the series on Mus musculus [2], 15 mmHg; in the series with Mus musculus [3], 15 bpm; in the series with Mus musculus [7], 21.6 Counts. For the same compound, in the series on Mus musculus [13], the inhibition entry is “inactive”. The inhibition entry in the series with Mus musculus [4] was “Active”. In series [5], the LD50 is greater than 500 mg/kg. In addition, the Time in the series on Mus musculus [6] came to 4 s; with Mus musculus [8], 0.84 min; with Mus musculus [10], 60 min. In the series on Mus musculus [9], the outcome was inactive.

On to `CC1=N/C(=C\c2ccc(N(C)C)cc2)C(=O)N1c1ccc(OCC2CO2)cc1` (configuration not stated), for which the Activity in the series on Mus musculus [1] came out at 60 mmHg; in the series with Mus musculus [2], 28 mmHg; with Mus musculus [3], 24 bpm; in the series on Mus musculus [7], 10.3 Counts. Further, the inhibition result in the series with Mus musculus [13] and with Mus musculus [4] was “Active” each time. Also, the LD50 in [5] is greater than 500 mg/kg. In addition, the Time amounted to 3.8 s in the series with Mus musculus [6], 1.31 min in the series on Mus musculus [8] and 30 min in the series with Mus musculus [10].

`CN(C)c1ccc(/C=C2\N=C(CCN3CCOCC3)N(c3ccc(O)cc3)C2=O)cc1`: the Activity turned out to be 15 mmHg in the series with Mus musculus [1], 37 mmHg in the series with Mus musculus [2], 30 bpm with Mus musculus [3] and 4.5 Counts in the series with Mus musculus [7]. The inhibition entry in the series on Mus musculus [4] is “Active”. Besides, in series [5], the LD50 is greater than 500 mg/kg. The values for the Time in the series on Mus musculus [6], with Mus musculus [8] and in the series on Mus musculus [10] were 2.6 s, 0.5 min and 60 min, respectively. Moreover, in the series with Mus musculus [9], the result was Active.

With `CC1=N/C(=C\c2ccccc2)C(=O)N1c1ccc(O)cc1`, the Activity is 15 mmHg with Mus musculus [1], 70 mmHg in the series with Mus musculus [2], 12 bpm in the series with Mus musculus [3] and 8.6 Counts in the series with Mus musculus [7]. Also, the inhibition entry in the series with Mus musculus [13] and in the series on Mus musculus [4] was “Active” each time. In series [5], the LD50 was greater than 200 mg/kg. The Time in the series on Mus musculus [6] is 6.4 s; with Mus musculus [8] it was 2.74 min; with Mus musculus [10] it was 60 min.
